Measurements as given in patent publication US20140120577A1, “Metalloporphyrin Inducible Promoter” (CHR HANSEN A/S, priority 2011, published 2014).
Read-outs that look alike come from different tables or passages of the source.

Key:
[1] = system: ygƒCBA operon; conditions: 100 μM heme, cited from earlier work
[2] = system: promoter of the ygƒCBA operon (Pheme); assay: lacZ reporter (beta-galactosidase, Miller method) induction from pTCV Pheme-ygfC-lacZ plasmid in L. lactis MG1363; type: cell-based, Lactococcus lactis; conditions: for fold induction of beta-galactosidase: M17-glucose (1%)
Procedure: The pTCV-lac plasmid was used to transform the L. lactis strain MG1363. The transformants were selected on M17 plus glucose (0.5%) solid medium containing erythromycin 3 μg/ml. Colonies were purified and cells stored at −80° C.
Hemin solution is prepared at 20 mM in 50 mM NaOH, and aliquoted for storage at −20° C.; one tube is used for each assay and is then discarded.
PPIX-Ga solution is prepared at 10 mM in dimethylsulfoxide, and prepared in aliquots for storage at −20° C.; one tube is used for each assay and is then discarded.
The L. lactis cells carrying the plasmid are precultured overnight at 30° C. under non-aeration conditions in M17-glucose (0.5%) medium or BHI-Tris (note that BHI includes 0.2% glucose). The media are supplemented with 3 μg/ml erythromycin to maintain the plasmid.
The following day, the precultures are diluted 100-fold in new M17-glucose (1%) medium or BHI-Tris medium (0.5% final glucose concentration), and containing 3 μg/ml erythromycin. The cultures are grown at 30° C. either under non-aeration conditions (nonagitated cultures in full bottles), or under aeration conditions (cultures in conical flasks with baffles, one tenth full; agitation at 170 rpm in the presence of air). The growth is monitored by measuring the OD600.
The inducer is added either simultaneously with the bacteria, or during growth when the bacteria exit the lag phase (OD600=˜0.1 in M17-glucose [1%] medium, OD600=˜0.2 to 0.3 in BHI-Tris-glucose medium).
Cells are recovered from the cultures at OD600=1, and beta-galactosidase activity of the bacterial extracts is quantified by the Miller method (MILLER, Experiments in molecular genetics. Cold Spring Harbor Laboratory Press, Cold Spring Harbor, N.Y., 1972). In the presence of o-nitrophenyl-β-D-galactoside (ONPG), beta-galactosidase produces yellow-colored O-nitrophenol which can be assayed by measuring the optical density at 420 nm (A420); Beta-galactosidase activity of each sample is measured in Miller units by the following formula: 1000×A420/T(min)×V(ml)×A600. This formula measures activity in a cell sample, such that the value is standardized to the same cell biomass (given as the A600 value).

[3] = system: PhemeygƒC inducible system; assay: PHEME-ygƒC-lacZ reporter induction in Lactobacillus casei (BETA-GLO test); type: cell-based; conditions: 10 μM hemin; MRS; static or aerated; 1 hour; endogenous background subtracted
Procedure: The pTCV-PhemeygƒC-lacZ plasmid described in Example 1 was used to transform a Lactobacillus casei laboratory strain. Transformants were selected on solid MRS medium containing erythromycin 3 μg/ml.
Hemin was prepared as described in Example 2 above.
The Lactobacillus casei cells carrying the pTCV-PhemeygƒC-lacZ plasmid were precultured overnight at 37° C. in MRS containing 3 μg/ml erythromycin. […] This was used as a control for background due to endogenous beta-galactosidase activity present in this species.
The following day, the precultures were diluted 20-fold in fresh MRS medium supplemented with 3 μg/ml erythromycin. The cultures were grown at 37° C. under static and aeration conditions and growth was monitored by measuring the OD600 as described above for Lactococcus lactis. The hemin inducer (10 μM final concentration) was added during growth once bacteria were in exponential phase (OD600=˜0.4).
Cells in mid exponential phase (OD600=˜0.4) were recovered from the cultures after 1 hour in the presence of the hemin inducer and the volumes were adjusted to a final fixed OD600 for the assay. In this experiment, bacterial beta-galactosidase activity is quantified using the commercially available BETA-GLO test (Promega), following manufacturer instructions.

[4] = system: promoter of the ygƒCBA operon (Pheme); assay: lacZ reporter (beta-galactosidase) induction in Streptococcus agalactiae NEM316; type: cell-based; conditions: for amount of inducer resulting in optimal induction: 1 or 10 μM tested; for induction (in words): BHI-Tris-glucose, non-aerated and aerated cultures; for induction over background without hemin: M17-glucose, added at OD600 ~0.3, 1 hour; for induction of the promoter (in words): summary statement
Procedure: The pTCV-lac plasmid was used to transform the Streptococcus agalactiae strain NEM316. The transformants were selected on solid M17-glucose (0.5%) medium containing erythromycin 3 μg/ml.
Hemin and PPIX-Ga solutions are prepared as described in Example 2 above.
The Streptococcus agalactiae cells carrying the plasmid are precultured overnight at 37° C. in M17-glucose (0.2%) and 3 μg/ml erythromycin, or in BHI-Tris medium supplemented with 3 μg/ml erythromycin.
The following day, the precultures are diluted 100-fold in new M17-glucose (1%) medium supplemented with 3 μg/ml erythromycin, or BHI-Tris-glucose (0.5% final concentration), and 3 μg/ml erythromycin. The cultures are grown at 37° C. either under non-aeration conditions or under aeration conditions and growth is monitored by measuring the OD600 as described above for Lactococcus lactis.
The inducer is added during growth when bacteria exit the lag phase (OD600=˜0.25 to 0.3).
Cells are recovered from the cultures at OD600=1, and bacterial beta-galactosidase activity is quantified as described in Example 2 above.

[5] = BHI-Tris-glucose medium, non-aeration or aeration

C=CC1=C(C)c2cc3[n-]c(cc4[n-]c(cc5nc(cc1n2)C(C)=C5C=C)c(C)c4CCC(=O)O)c(CCC(=O)O)c3C.[Cl-].[Fe+3] [hemin]
induction of the ygƒCBA operon ([1]; aeration conditions): up to 50 fold
induction of the ygƒCBA operon ([1]; non-aeration conditions): up to 80 fold
fold induction of beta-galactosidase ([2]; aeration, inducer added during growth (OD600 ~0.1), cells recovered at OD600=1): 80 fold
fold induction of beta-galactosidase ([2]; aeration, inducer added simultaneously with the bacteria, cells recovered at OD600=1): 70 fold
increase of beta-galactosidase expression ([2]; depending on the heme concentration and the culture conditions): up to 100 fold
induction of beta-galactosidase (in words) [3]: strong induction
amount of inducer resulting in optimal induction [4, 5]: 1 µM
induction (in words) [4]: efficient
amount of inducer resulting in optimal induction ([4]; M17-glucose medium, non-aeration and aeration): 1 µM
induction over background without hemin ([4]; aeration conditions): more than 150 fold
induction over background without hemin ([4]; non-aeration conditions): less than 50 fold
induction of the promoter (in words) [4]: efficient inducers

C=CC1=C(C)C2=[N+]3C1=Cc1c(C)c(C=C)c4[n]1[Ga-]31[n]3c(c(C)c(CCC(=O)O)c3=CC3=[N+]1C(=C4)C(C)=C3CCC(=O)O)=C2 (stereo not drawn) [Ga-PPIX, gallium-protoporphyrin IX]
fold induction of beta-galactosidase ([2]; non-aeration (static), 10 or 20 μM added during growth (OD600 ~0.1)): 120 fold
fold induction of beta-galactosidase ([2]; non-aeration (static), 10 or 20 μM added simultaneously with the bacteria): 90 fold
induction of the promoter (in words) ([2]; aeration and non-aeration conditions): efficient inducer
amount of inducer resulting in optimal induction [4, 5]: 10 µM
induction (in words) [4]: efficient
induction of the promoter (in words) [4]: efficient inducers
